Measured values reported in the supplement of paper PMC10307832.

Compound: Cc1cnc(CNC(=O)c2c(=O)c3ccc(N4CCCN(C)CC4)nc3n3c2sc2ccccc23)cn1 [CX-5461] + CC(C)C[C@H](NC(=O)[C@H](Cc1ccccc1)NC(=O)c1cnccn1)B(O)O [Bortezomib] (partner 0.002 µM)
Test: relative viability (nuclei count vs DMSO), 5 days (fraction); higher = more cells survive
Conditions: first compound 0.01 µM
In short: (§1)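 Lung cancer cell lines were seeded in 1536-well plates and dosed by pin tool the next day, with either a single drug or a fixed anchor-drug dose combined with five library-drug doses (not always all listed) spaced in √10 steps. Five days later, one step fixed the cells and stained their nuclei (final 0.05% Triton X-100, 1% formaldehyde, 1 ug/ml Hoechst), and nuclei were counted on 4× images. Relative viability is the nuclei count in treated wells divided by the count in vehicle wells, and each value is the median of duplicate plates.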

Cell Line	relative viability
LOU-NH91	0.509
ChaGo-K-1	1.14
NCI-H2405	0.998
HOP-62	0.726
HCC-44	0.898
LU99A	1.1
BEN	1.07
HARA	1.01
HCC-78	0.434
NCI-H322M	1.2
LCLC-97TM1	0.69
NCI-H2009	1.05
A-427	0.999
NCI-H441	0.577
NCI-H661	0.885
NCI-H1734	0.948

Cell Line	relative viability
NCI-H460	1.15
NCI-H2347	1.06
SW 1573	0.952
201T	1.16
NCI-H1915	1.03
HCC-827	1.01
LXF-289	0.99
NCI-H23	0.939
NCI-H647	1.16
NCI-H1651	0.899
EPLC-272H	0.93
NCI-H1792	0.935
NCI-H1355	1.2
NCI-H3122	0.95
NCI-H1437	0.45
NCI-H1755	1.05

Same assay, conditions: first compound 0.03162 µM

Cell Line	relative viability
LOU-NH91	0.492
ChaGo-K-1	0.968
NCI-H2405	0.976
HOP-62	0.84
HCC-44	0.973
LU99A	1.02
BEN	0.665
HARA	1.28
HCC-78	0.485
NCI-H322M	1.35
LCLC-97TM1	0.34
NCI-H2009	1.08
A-427	1.04
NCI-H441	0.555
NCI-H661	0.877
NCI-H1734	1.18

Cell Line	relative viability
NCI-H460	0.995
NCI-H2347	1.21
SW 1573	1.22
201T	1.15
NCI-H1915	1.06
HCC-827	1.06
LXF-289	1.06
NCI-H23	0.964
NCI-H647	0.991
NCI-H1651	0.896
EPLC-272H	0.975
NCI-H1792	1.16
NCI-H1355	1.19
NCI-H3122	1.06
NCI-H1437	0.423
NCI-H1755	1.03

Same assay, conditions: first compound 0.1 µM

Cell Line	relative viability
LOU-NH91	0.485
ChaGo-K-1	0.647
NCI-H2405	0.987
HOP-62	0.896
HCC-44	0.844
LU99A	0.977
BEN	1.02
HARA	1.13
HCC-78	0.548
NCI-H322M	1.26
LCLC-97TM1	0.457
NCI-H2009	0.644
A-427	0.98
NCI-H441	0.692
NCI-H661	0.61
NCI-H1734	0.838

Cell Line	relative viability
NCI-H460	0.16
NCI-H2347	0.836
SW 1573	1.03
201T	1.08
NCI-H1915	0.989
HCC-827	1.02
LXF-289	0.976
NCI-H23	0.854
NCI-H647	0.95
NCI-H1651	0.816
EPLC-272H	0.765
NCI-H1792	0.966
NCI-H1355	1.12
NCI-H3122	1.07
NCI-H1755	0.972

Same assay, conditions: first compound 0.3162 µM

Cell Line	relative viability
ChaGo-K-1	0.414
NCI-H2405	1.13
HOP-62	0.909
HCC-44	0.838
LU99A	0.868
BEN	0.672
HARA	1.06
HCC-78	0.498
NCI-H2009	0.867
NCI-H441	0.465
NCI-H1734	0.751
NCI-H460	0.233
NCI-H2347	0.854
SW 1573	0.924
201T	1.14
NCI-H1915	1.02
HCC-827	1.06
LXF-289	1.03
NCI-H23	1.06
NCI-H647	0.935
NCI-H1651	0.969
NCI-H1792	0.965
NCI-H1355	1.28
NCI-H3122	1.02
NCI-H1437	0.369
NCI-H1755	0.99

Same assay, conditions: first compound 1 µM

Cell Line	relative viability
LOU-NH91	0.452
ChaGo-K-1	0.449
NCI-H2405	0.953
HOP-62	0.424
HCC-44	0.807
LU99A	0.417
BEN	0.597
HARA	0.809
HCC-78	0.428
NCI-H322M	1.23
LCLC-97TM1	0.119
NCI-H2009	0.492
A-427	0.912
NCI-H441	0.337
NCI-H661	0.639
NCI-H1734	0.45

Cell Line	relative viability
NCI-H460	0.0251
NCI-H2347	0.941
SW 1573	0.763
201T	1.05
NCI-H1915	0.891
HCC-827	0.997
LXF-289	0.66
NCI-H23	0.404
NCI-H647	0.168
NCI-H1651	0.404
EPLC-272H	0.814
NCI-H1792	0.848
NCI-H1355	0.877
NCI-H3122	0.914
NCI-H1437	0.316
NCI-H1755	0.877

Compound: Cc1cnc(CNC(=O)c2c(=O)c3ccc(N4CCCN(C)CC4)nc3n3c2sc2ccccc23)cn1 [CX-5461] + CC(=O)Nc1cccc(-n2c(=O)n(C3CC3)c(=O)c3c(Nc4ccc(I)cc4F)n(C)c(=O)c(C)c32)c1 [Trametinib] (partner 0.02 µM)
Test: as above
Conditions: first compound 0.01 µM
In short: as §1

Cell Line	relative viability
LOU-NH91	0.796
ChaGo-K-1	0.875
NCI-H2405	0.652
HOP-62	0.404
HCC-44	0.921
LU99A	0.596
BEN	0.936
HARA	0.545
HCC-78	0.76
NCI-H322M	0.441
LCLC-97TM1	0.199
NCI-H2009	0.341
A-427	0.815
NCI-H441	0.451
NCI-H661	0.647
NCI-H1734	0.716

Cell Line	relative viability
NCI-H460	0.21
NCI-H2347	0.273
SW 1573	0.496
201T	0.706
NCI-H1915	0.285
HCC-827	0.509
LXF-289	0.757
NCI-H23	0.421
NCI-H647	0.589
NCI-H1651	0.824
EPLC-272H	0.27
NCI-H1792	0.542
NCI-H1355	0.456
NCI-H3122	0.21
NCI-H1437	0.542
NCI-H1755	0.826

Same assay, conditions: first compound 0.03162 µM

Cell Line	relative viability
LOU-NH91	0.813
ChaGo-K-1	0.978
NCI-H2405	0.594
HOP-62	0.37
HCC-44	1.25
LU99A	0.488
BEN	0.96
HARA	0.772
HCC-78	0.82
NCI-H322M	0.542
LCLC-97TM1	0.216
NCI-H2009	0.271
A-427	0.798
NCI-H441	0.552
NCI-H661	0.621
NCI-H1734	0.781

Cell Line	relative viability
NCI-H460	0.142
NCI-H2347	0.279
SW 1573	0.513
201T	0.73
NCI-H1915	0.326
HCC-827	0.583
LXF-289	0.647
NCI-H23	0.372
NCI-H647	0.331
NCI-H1651	0.791
EPLC-272H	0.308
NCI-H1792	0.434
NCI-H1355	0.496
NCI-H3122	0.213
NCI-H1437	0.568
NCI-H1755	0.796

Same assay, conditions: first compound 0.1 µM

Cell Line	relative viability
LOU-NH91	0.777
ChaGo-K-1	0.874
NCI-H2405	0.724
HOP-62	0.388
HCC-44	1.11
LU99A	0.477
BEN	1.11
HARA	0.573
HCC-78	0.88
NCI-H322M	0.55
LCLC-97TM1	0.176
NCI-H2009	0.286
A-427	0.661
NCI-H441	0.441
NCI-H661	0.544
NCI-H1734	0.788

Cell Line	relative viability
NCI-H460	0.0583
NCI-H2347	0.292
SW 1573	0.126
201T	0.693
NCI-H1915	0.327
HCC-827	0.617
LXF-289	0.751
NCI-H23	0.407
NCI-H647	0.494
NCI-H1651	0.87
EPLC-272H	0.268
NCI-H1792	0.407
NCI-H1355	0.462
NCI-H3122	0.205
NCI-H1437	0.469
NCI-H1755	0.836

Same assay, conditions: first compound 0.3162 µM

Cell Line	relative viability
LOU-NH91	0.613
ChaGo-K-1	0.922
NCI-H2405	0.575
HOP-62	0.419
HCC-44	1.14
LU99A	0.389
BEN	1.17
HARA	0.661
HCC-78	0.753
NCI-H322M	0.407
LCLC-97TM1	0.193
NCI-H2009	0.301
A-427	0.488
NCI-H441	0.429
NCI-H661	0.432
NCI-H1734	0.599
NCI-H460	0.0956
NCI-H2347	0.272
SW 1573	0.566
201T	0.75
NCI-H1915	0.315
HCC-827	0.494
NCI-H23	0.442
NCI-H647	0.451
NCI-H1651	0.79
NCI-H1792	0.401
NCI-H1355	0.414
NCI-H3122	0.248
NCI-H1437	0.537
NCI-H1755	0.719

Same assay, conditions: first compound 1 µM

Cell Line	relative viability
LOU-NH91	0.78
ChaGo-K-1	0.849
NCI-H2405	0.649
HOP-62	0.363
HCC-44	1.05
LU99A	0.634
BEN	1.04
HARA	0.644
HCC-78	0.71
NCI-H322M	0.508
LCLC-97TM1	0.213
NCI-H2009	0.243
A-427	0.578
NCI-H441	0.24
NCI-H661	0.376
NCI-H1734	0.711

Cell Line	relative viability
NCI-H460	0.0222
NCI-H2347	0.223
SW 1573	0.16
201T	0.721
NCI-H1915	0.307
HCC-827	0.582
LXF-289	0.677
NCI-H23	0.285
NCI-H647	0.218
NCI-H1651	0.778
EPLC-272H	0.318
NCI-H1792	0.52
NCI-H1355	0.435
NCI-H3122	0.186
NCI-H1437	0.391
NCI-H1755	0.753

Compound: O=C(Nc1cc(C(F)(F)F)cc(C(F)(F)F)c1)c1cc(Cl)ccc1O [IMD-0354] + C[C@@H](Oc1cc(-c2cnn(C3CCNCC3)c2)cnc1N)c1c(Cl)ccc(F)c1Cl [Crizotinib] (partner 1 µM)
Test: as above
Conditions: first compound 0.04 µM
In short: as §1

Cell Line	relative viability
LOU-NH91	0.754
ChaGo-K-1	1.16
NCI-H2405	0.915
